Measured values published in patent US20070225253A1, “Use of a trioxopyrimidine for the treatment and prevention of bronchial inflammatory diseases” (priority 2004, published 2007).
Values after ≈ are worked out from the molar mass of the structure shown. Values joined by “and” are separate entries in the source; they are usually repeats but may differ in a detail not shown here. Equal entries are not always repeated. Where two headings read alike, the source gives them in different places.

Columns and labels:
[1] = Phase solubility study of Compound I with HP-β-CD and L-lysine; assay type: physicochemical; details: for solubility at 7 days: 25 °C, thermodynamic from solid
Procedure: Solubility studies were performed as described by Higuchi, T., and Connors, K. A., Advances in Analytical Chemistry and Instrumentation 4 (1965) 117-212. Excess amounts of Compound I were added to increasing concentrations of HP-β-CD (0-200 mM) in 5 ml dissolution media, either purified water or L-lysine solutions (50 mM or 500 mM). The glass containers were sealed and the suspensions were shaken in a water-bath at 25° C. until complexation equilibrium was reached (7 days). An aliquot was filtered through a 0.45 μm PVDF membrane filter and assayed for Compound I content by a validated liquid chromatography (LC) method.

[2] = test system: allergen-induced airway inflammation; assay: Mouse model of asthma (OVA), intraperitoneal injection of Compound I; assay type: in vivo, mice; details: 3.75 to 30 mg/kg
Procedure: In order to study the modulation of airway inflammation by intraperitoneal injection of Compound I, mice were sensitized with 10 μg ovalbumin alumin-adsorbed (aluminject, perbio, Erembodegem, Belgium) injected intraperitonealy at days 0 and 7 and were subsequently exposed to OVA 1% or PBS aerosols for 30 minutes from day 21 to 24. Intraperitoneal injections were performed 30 min before OVA inhalations. The different injected formulations were: cremophor 10%-DMSO 10%-PBS 80%- Compound I30 mg/kg (suspension); cremophor 10%-DMSO 10%-PBS 80%- Compound I3.75 mg/kg (solution); HPβCD 200 mM Compound I 7.5 mg/kg (solution); HPβCD 200 mM. […]
Twenty-four hours after the last allergen exposure, the bronchial hyper responsiveness was determined by measuring the Penh using a barometric plethysmograph as proposed by Hamelmann, E., et al., Am. […] The Penh was measured at baseline and 5 min after the inhalation of increasing doses (25, 50, 75 and 100 mM) of methacholine (Mch).
(§1) Immediately after the assessment of airway responsiveness, mice were sacrificed and 1 ml of PBS free of ionised calcium and magnesium but supplemented with 0.05 mM sodium EDTA was instilled 4 times via a tracheal cannula and recovered by gentle manual aspiration. […] A value from 0 to 3 per criteria was adjudged to each tissue section scored. […]

[3] = test system: allergen-induced airway inflammation and bronchial hyperresponsiveness; assay: Mouse model of asthma (OVA), inhalation, short exposure challenge; assay type: in vivo, mice; details: inhalation of 40 mg/ml solution in pure DMSO, short-term exposure, vs DMSO alone
Procedure: In order to study the modulation of airway inflammation by intraperitoneal injection of Compound I, mice were sensitized with 10 μg ovalbumin alumin-adsorbed (aluminject, perbio, Erembodegem, Belgium) injected intraperitonealy at days 0 and 7 and were subsequently exposed to OVA 1% or PBS aerosols for 30 minutes from day 21 to 24. Intraperitoneal injections were performed 30 min before OVA inhalations. The different injected formulations were: cremophor 10%-DMSO 10%-PBS 80%- Compound I30 mg/kg (suspension); cremophor 10%-DMSO 10%-PBS 80%- Compound I3.75 mg/kg (solution); HPβCD 200 mM Compound I 7.5 mg/kg (solution); HPβCD 200 mM. All results were compared to mice sensitized and exposed to PBS and OVA treated with PBS injected intraperitonealy. In order to study the modulation of airway inflammation by inhaled Compound I, mice were sensitized as described previously. Two protocols referred to as short exposure challenge and long-term exposure challenge were used. In the short exposure challenge, mice were exposed to aerosols of Compound I-complex at concentrations of 0.03 and 0.3 mg/ml of active compound in aqueous solution of from day 21 to 27 during 30 min in a Plexiglas exposure chamber (30×20×15 cm). Mice were exposed to OVA aerosols 30 minutes after the Compound I inhalation from day 23 to 27. In the so called long-term inhalation challenge, mice were exposed to aerosols of Compound Iat concentrations of 0.03 and 0.3 mg/ml complexed with HPβCD in an aqueous solution during 30 min five days odd weeks and to OVA aerosols 3 days odd weeks for 11 weeks. No inhalations were performed during even weeks.
The aerosol were produced by using an ultrasonic nebuliser SYSTAM (Systeme Assistance Medical, Le Ledat, France), the vibration frequency of which is 2.4 MHz with variable vibration intensity and ventilation levels. Vibration intensity was fixed in position 6 and the ventilation level was 25(ν1/2)1/min.
Twenty-four hours after the last allergen exposure, the bronchial hyper responsiveness was determined by measuring the Penh using a barometric plethysmograph as proposed by Hamelmann, E., et al., Am. J Respir. Crit. Care Med. 156 (1997) 766-775). The Penh was measured at baseline and 5 min after the inhalation of increasing doses (25, 50, 75 and 100 mM) of methacholine (Mch).
as §1, with “aspiration. The recovered bronchoalveolar lavage fluid (BAL) was centrifuged (1800 rpm for 10 min at 4° C.).” for “aspiration.”

O=C1NC(=O)C(c2ccc(-c3ccccc3)cc2)(N2CCN(c3ccc([N+](=O)[O-])cc3)CC2)C(=O)N1 [Compound I, 5-Biphenyl-4-yl-5-[4-(4-nitro-phenyl)-piperazin-1-yl]pyrimidine-2,4,6-trione]
solubility at 7 days ([1]; 50 mM L-lysine solution with 200 mM HP-β-CD, aqueous with cosolvent or surfactant or cyclodextrin, L-lysine 50 mM, 25° C., read-out: Solubility with HP-β-CD (200 mM)): 17100 µg/mL (≈ 35.2 mM) | solubility at 7 days ([1]; 50 mM L-lysine solution, no cyclodextrin, aqueous buffer, L-lysine 50 mM, 25° C., read-out: Solubility without CD): 50 µg/mL (≈ 0.103 mM) | solubility at 7 days ([1]; 200 mM HP-β-CD in purified water, aqueous with cosolvent or surfactant or cyclodextrin, purified water, 25° C., read-out: Solubility with HP-β-CD (200 mM)): 5530 µg/mL (≈ 11.4 mM) | solubility at 7 days ([1]; 200 mM HP-β-CD in purified water, no L-lysine, aqueous with cosolvent or surfactant or cyclodextrin, solubility in a 200 mM HP-β-CD solution, absence of L-lysine): ~5500 µg/mL and ~11000 µM | increase of aqueous solubility ([1]; 200 mM HP-β-CD, no L-lysine, vs purified water): approximately 10,000 fold | solubility at 7 days ([1]; 500 mM L-lysine solution with 200 mM HP-β-CD, aqueous with cosolvent or surfactant or cyclodextrin, 500 mM L-lysine and 200 mM HP-β-CD, read-out: solubility): 38100 µg/mL (≈ 78.6 mM) | solubility at 7 days ([1]; 500 mM L-lysine solution with 200 mM HP-β-CD, aqueous with cosolvent or surfactant or cyclodextrin, L-lysine 500 mM, 25° C., read-out: Solubility with HP-β-CD (200 mM)): 38100 µg/mL (≈ 78.6 mM) | solubility at 7 days ([1]; 500 mM L-lysine solution, no cyclodextrin, aqueous buffer, L-lysine 500 mM, 25° C., read-out: Solubility without CD): 90 µg/mL (≈ 0.185 mM) | solubility at 7 days ([1]; 500 mM L-lysine solution, no cyclodextrin, aqueous buffer, L-lysine (500 mM) separately, no CD, read-out: solubility): 90 µg/mL (≈ 0.185 mM) | increase of aqueous solubility ([1]; 500 mM of L-lysine and 200 mM of HP-β-CD): 70,000 fold | solubility at 7 days ([1]; purified water, no cyclodextrin, water, purified water, 25° C., read-out: Solubility without CD): 0.56 µg/mL (≈ 0.00115 mM) | peribronchial inflammation scores ([2]; equal efficacy of all tested formulations): significantly lowered | allergen-induced airway eosinophilic inflammation in BAL ([2]; solution or precipitate, vs placebo): lowered | BAL eosinophils ([3]; p<0.005): significant decrease | peribronchial inflammation scores ([3]; p<0.01): significant decrease | bronchial hyperresponsiveness ([3]; p<0.05): significant decrease
